# Assay results: the supplement of paper PMC11208160
# Test: recombinant barcode read abundance after kanamycin selection (control-corrected) (log10(CPM+1)); higher = more efficient recombination; sequences stand for … in AGTGCAGAGAAAATCGGCCAGTTTTCTCTGCCTGCAGTCCGCATGCCGT…ATTTATGCAGCGGACTGCCTTTCTCCCAAAGTGATAAACCGGACAGTATCATGGACCGGTTTTCCCGGTAATCCGTATTTGCAAGGTTGGTTTCACT; site = the 11-nt target
# Protocol: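 Same pooled E. coli target screen (IS621 bridge recombinase, kanamycin selection, control-corrected CPM, mean of 2 biological replicates). Here the two core-binding nucleotides of the LTG and RTG of the bridge RNA target-binding loop are mutated. Target and donor CT cores are held constant, and the other 9 guide positions match the target. The target is read from the library oligo sequence. Molecule = full bridge RNA written as DNA: nt 1-80 from the library oligo, rest WT scaffold.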
row,Sequence,recombinant barcode read abundance (log10)
1,"AGTCTTAAGTGGGTTCTAACCTGTTGCCAAG [AGTCTTACTTG_LTGcore_AG_RTGcore_CT] (site AGTCTTACTTG) (LTG core: AG, RTG core: CT)",0.102
2,"AGTCTTAATTGGGTTCTAACCTGTTGCCAAT [AGTCTTACTTG_LTGcore_AT_RTGcore_AT] (site AGTCTTACTTG) (LTG core: AT, RTG core: AT)",0.0434
3,"AGTCTTACCTGGGTTCTAACCTGTTGCCAGG [AGTCTTACTTG_LTGcore_CC_RTGcore_CC] (site AGTCTTACTTG) (LTG core: CC, RTG core: CC)",0.117
4,"AGTCTTACTTGGGTTCTAACCTGTTGCCACA [AGTCTTACTTG_LTGcore_CT_RTGcore_TG] (site AGTCTTACTTG) (LTG core: CT, RTG core: TG)",0.032
5,"AGTCTTATATGGGTTCTAACCTGTTGCCAAG [AGTCTTACTTG_LTGcore_TA_RTGcore_CT] (site AGTCTTACTTG) (LTG core: TA, RTG core: CT)",0.0306
6,"AGTCTTATTTGGGTTCTAACCTGTTGCCAAA [AGTCTTACTTG_LTGcore_TT_RTGcore_TT] (site AGTCTTACTTG) (LTG core: TT, RTG core: TT)",0.0474
7,"ATGCTTTAATGGGTTCTAACCTGTTGCCTAG [ATGCTTTCTAG_LTGcore_AA_RTGcore_CT] (site ATGCTTTCTAG) (LTG core: AA, RTG core: CT)",0.0699
8,"ATGCTTTATTGGGTTCTAACCTGTTGCCTAG [ATGCTTTCTAG_LTGcore_AT_RTGcore_CT] (site ATGCTTTCTAG) (LTG core: AT, RTG core: CT)",0.162
9,"ATGCTTTCTTGGGTTCTAACCTGTTGCCTAG [ATGCTTTCTAG_LTGcore_CT_RTGcore_CT] (site ATGCTTTCTAG) (LTG core: CT, RTG core: CT)",0.384
10,"ATGCTTTCTTGGGTTCTAACCTGTTGCCTCT [ATGCTTTCTAG_LTGcore_CT_RTGcore_AG] (site ATGCTTTCTAG) (LTG core: CT, RTG core: AG)",0.0217
11,"ATGCTTTCTTGGGTTCTAACCTGTTGCCTGA [ATGCTTTCTAG_LTGcore_CT_RTGcore_TC] (site ATGCTTTCTAG) (LTG core: CT, RTG core: TC)",0.0714
12,"ATGCTTTGCTGGGTTCTAACCTGTTGCCTAG [ATGCTTTCTAG_LTGcore_GC_RTGcore_CT] (site ATGCTTTCTAG) (LTG core: GC, RTG core: CT)",0.0505
13,"ATGCTTTGGTGGGTTCTAACCTGTTGCCTCC [ATGCTTTCTAG_LTGcore_GG_RTGcore_GG] (site ATGCTTTCTAG) (LTG core: GG, RTG core: GG)",0.235
14,"ATGTCCCACTGGGTTCTAACCTGTTGCTCGT [ATGTCCCCTGA_LTGcore_AC_RTGcore_AC] (site ATGTCCCCTGA) (LTG core: AC, RTG core: AC)",0.183
15,"ATGTCCCAGTGGGTTCTAACCTGTTGCTCAG [ATGTCCCCTGA_LTGcore_AG_RTGcore_CT] (site ATGTCCCCTGA) (LTG core: AG, RTG core: CT)",0.0996
16,"ATGTCCCATTGGGTTCTAACCTGTTGCTCAG [ATGTCCCCTGA_LTGcore_AT_RTGcore_CT] (site ATGTCCCCTGA) (LTG core: AT, RTG core: CT)",0.234
17,"ATGTCCCCTTGGGTTCTAACCTGTTGCTCCG [ATGTCCCCTGA_LTGcore_CT_RTGcore_CG] (site ATGTCCCCTGA) (LTG core: CT, RTG core: CG)",0.249
18,"ATGTCCCCTTGGGTTCTAACCTGTTGCTCGC [ATGTCCCCTGA_LTGcore_CT_RTGcore_GC] (site ATGTCCCCTGA) (LTG core: CT, RTG core: GC)",0.327
19,"ATGTCCCCTTGGGTTCTAACCTGTTGCTCGG [ATGTCCCCTGA_LTGcore_CT_RTGcore_CC] (site ATGTCCCCTGA) (LTG core: CT, RTG core: CC)",0.29
20,"ATGTCCCGATGGGTTCTAACCTGTTGCTCAG [ATGTCCCCTGA_LTGcore_GA_RTGcore_CT] (site ATGTCCCCTGA) (LTG core: GA, RTG core: CT)",0.647
21,"ATGTCCCGGTGGGTTCTAACCTGTTGCTCAG [ATGTCCCCTGA_LTGcore_GG_RTGcore_CT] (site ATGTCCCCTGA) (LTG core: GG, RTG core: CT)",0.294

row,Sequence,recombinant barcode read abundance (log10)
1,"ATGTCCCGTTGGGTTCTAACCTGTTGCTCAC [ATGTCCCCTGA_LTGcore_GT_RTGcore_GT] (site ATGTCCCCTGA) (LTG core: GT, RTG core: GT)",0.0823
2,"ATGTCCCTCTGGGTTCTAACCTGTTGCTCAG [ATGTCCCCTGA_LTGcore_TC_RTGcore_CT] (site ATGTCCCCTGA) (LTG core: TC, RTG core: CT)",0.209
3,"ATGTCCCTGTGGGTTCTAACCTGTTGCTCAG [ATGTCCCCTGA_LTGcore_TG_RTGcore_CT] (site ATGTCCCCTGA) (LTG core: TG, RTG core: CT)",0.0616
4,"ATGTCCCTGTGGGTTCTAACCTGTTGCTCCA [ATGTCCCCTGA_LTGcore_TG_RTGcore_TG] (site ATGTCCCCTGA) (LTG core: TG, RTG core: TG)",0.0547
5,"CATATTAACTGGGTTCTAACCTGTTGCCTAG [CATATTACTAG_LTGcore_AC_RTGcore_CT] (site CATATTACTAG) (LTG core: AC, RTG core: CT)",0.441
6,"CATATTACCTGGGTTCTAACCTGTTGCCTAG [CATATTACTAG_LTGcore_CC_RTGcore_CT] (site CATATTACTAG) (LTG core: CC, RTG core: CT)",0.0888
7,"CATATTACTTGGGTTCTAACCTGTTGCCTCC [CATATTACTAG_LTGcore_CT_RTGcore_GG] (site CATATTACTAG) (LTG core: CT, RTG core: GG)",0.2
8,"CATATTACTTGGGTTCTAACCTGTTGCCTTA [CATATTACTAG_LTGcore_CT_RTGcore_TA] (site CATATTACTAG) (LTG core: CT, RTG core: TA)",0.12
9,"CATATTACTTGGGTTCTAACCTGTTGCCTTG [CATATTACTAG_LTGcore_CT_RTGcore_CA] (site CATATTACTAG) (LTG core: CT, RTG core: CA)",0.214
10,"CATATTAGATGGGTTCTAACCTGTTGCCTAG [CATATTACTAG_LTGcore_GA_RTGcore_CT] (site CATATTACTAG) (LTG core: GA, RTG core: CT)",0.239
11,"CGAGCCCAATGGGTTCTAACCTGTTGCTGTT [CGAGCCCCTCA_LTGcore_AA_RTGcore_AA] (site CGAGCCCCTCA) (LTG core: AA, RTG core: AA)",0.0507
12,"CGAGCCCCTTGGGTTCTAACCTGTTGCTGAT [CGAGCCCCTCA_LTGcore_CT_RTGcore_AT] (site CGAGCCCCTCA) (LTG core: CT, RTG core: AT)",0.29
13,"CGAGCCCCTTGGGTTCTAACCTGTTGCTGCT [CGAGCCCCTCA_LTGcore_CT_RTGcore_AG] (site CGAGCCCCTCA) (LTG core: CT, RTG core: AG)",0.203
14,"CGAGCCCCTTGGGTTCTAACCTGTTGCTGGT [CGAGCCCCTCA_LTGcore_CT_RTGcore_AC] (site CGAGCCCCTCA) (LTG core: CT, RTG core: AC)",1.21
15,"CGAGCCCTTTGGGTTCTAACCTGTTGCTGAG [CGAGCCCCTCA_LTGcore_TT_RTGcore_CT] (site CGAGCCCCTCA) (LTG core: TT, RTG core: CT)",0.048
16,"CGCGCCCAGTGGGTTCTAACCTGTTGCGGCT [CGCGCCCCTCC_LTGcore_AG_RTGcore_AG] (site CGCGCCCCTCC) (LTG core: AG, RTG core: AG)",0.0334
17,"CGCGCCCATTGGGTTCTAACCTGTTGCGGAG [CGCGCCCCTCC_LTGcore_AT_RTGcore_CT] (site CGCGCCCCTCC) (LTG core: AT, RTG core: CT)",0.0641
18,"CGCGCCCCTTGGGTTCTAACCTGTTGCGGAG [CGCGCCCCTCC_LTGcore_CT_RTGcore_CT] (site CGCGCCCCTCC) (LTG core: CT, RTG core: CT)",0.131
19,"CGCGCCCCTTGGGTTCTAACCTGTTGCGGCA [CGCGCCCCTCC_LTGcore_CT_RTGcore_TG] (site CGCGCCCCTCC) (LTG core: CT, RTG core: TG)",0
20,"CGCGCCCCTTGGGTTCTAACCTGTTGCGGGC [CGCGCCCCTCC_LTGcore_CT_RTGcore_GC] (site CGCGCCCCTCC) (LTG core: CT, RTG core: GC)",0.592
